This note sets out measurements from US20130150317A1, “COMPOUNDS FOR THE TREATMENT OF RENAL CELL CARCINOMA” (Myrovlytis Technology Ventures Limited, priority 2010, published 2013).

Read-outs that look alike come from different tables or passages of the source.

The GI50 is the concentration at which growth is held to half of that of the control.

For assay [1], the system named is UOK257-FLCN^− cells. As to the kind of experiment: SRB growth inhibition assay in UOK257-FLCN^− cells. The settings on record: for GI50: Homo sapiens. The class given is cell-based, human. From the text: (§1) Human renal carcinoma of BHD origin cells UOK-257 (UOK-FLCN^−) and FLCN transfected UOK-257 cells UOK-FLCN^+ (Yang et al Cancer Genet Cytogenet. 2008 Jan. 15; 180(2):100-9) were provided by Dr Marston Linehan and Dr. Laura S Schmidt (Urologic Oncology Branch, Centre for Cancer Research, National Cancer Institute, National Institutes of Health, Bethesda, Md. 20892, USA). UOK-257 is the only RCC cell line that has been derived from a patient with BHD and harbours a germline FLCN frameshift mutation (c.1285dupC) (predicted, in the absence of nonsense mediated mRNA decay, to lead to premature protein truncation (p.His429ProfsX27) (Yang et al., Cancer Genet Cytogenet, 2008 Jan. 15; 180(2):100-9). We are not aware of any sporadic RCC cell lines with homozygous FLCN inactivation. FTC-133 cells were purchased from ECACC (Salisbury, United Kingdom). These cells are a non-RCC cell line derived from human thyroid carcinoma. 786-0 cells were available from the author's lab (Clifford et al., Hum Mol Genet. 2001 May 1; 10(10):1029-38). 786-O is a kidney cancer cell line that harbours an inactivating VHL gene mutation (c.311delG p.G104fs*55). All cell lines were cultured in DMEM with supplement of 10% foetal bovine serum except for FTC-133 cells which were incubated in medium with DMEM and Hens (1:1).
(§2) The sensitivity of the cell lines to drug-induced cell growth inhibition was determined using the sulphorhodamine B assay (SRB) as described by Lu et al., Clin Cancer Res. 2001:7:2114-23. Briefly, adherent exponentially growing cells were seeded into 96-well plates at 3-5×10^3 cells/100 μl/well. […] The absorbance per well was measured at 570 nm on a Victor X3 Multilabel Plate Reader (PerkinElmor, Beaconsfield, United Kingdom).
GI50 values, defined as the concentration of compounds required to inhibit growth by 50%, were then calculated. The ratio of GI50 value from UOK257-FLCN^+ and UOK257-FLCN^− were calculated and used as an indicator for the sensitivity to FLCN mutant cells.

Assay [2] deals with caspase3 in UOK257-FLCN^− cells. As to the kind of experiment: Western blot of cellular caspase3 protein after mithramycin. It is filed as cell-based, human. The settings on record: mithramycin 25, 50, 100, 200 nM, 48 hours. Here is the method: Cellular protein expression in UOK Cells with/without FLCN expression in response to drug exposure was determined using total cell extracts at 48 h after treatment, according to standard procedures. Protein concentration was determined using DC protein assay kit according to the manufacturer's instructions (Bio-Rad Laboratories Ltd, Hertfordshire, United Kingdom). Twenty […] of protein from each sample was electrophoresed on 12.5% (w/v) SDS-PAGE gels and electroblotted on to nitrocellulose membrane (Amersham Pharmacia Biotech UK Ltd., Buckinghamshire, United Kingdom). Antibody against FLCN (a gift from Prof. Arnim Pause, Rosalind and Morris Goodman Cancer Centre Montreal, Canada), caspase3 (Cell Signalling Technology, Hertfordshire, United Kingdom), and actin (Sigma-Aldrich Company Ltd., Dorset, United Kingdom) were used. The signal was detected using the enhanced chemiluminescence (ECL+Plus, Amersham) system after addition of anti-mouse IgG-HRP conjugate (DAKO, Ely, United Kingdom).
On the technique in general: Immunoblotting shows a protein as a band on a membrane.

A further assay relates to UOK-FLCN^+ cells. To be noted: 4×GI50 mithramycin, no rapamycin.
Another assay deals with UOK257-FLCN^+ cells. The experiment in a line: Clonogenic cell survival assay in UOK257-FLCN^+ cells. It is filed as cell-based, human. To be noted: 72 hrs exposure. From the text: Colonies with over 30 cells were counted.
Assay [3] has as its system UOK257-FLCN^− cells. To be noted: 4×GI50 mithramycin alone.
Experimental: (§4) At the end of the time course, media was carefully removed and cells were fixed in 85% ice-cold ethanol. After removal of ethanol, cells were incubated in the dark at 37° C. for 20 minutes in PBS buffers containing 0.1% Triton X-100, 100 mg/mL RNase A and 10 mg/mL Propidium iodide (PI). The 96-well plates were subsequently scanned using the Acumen eX3 cytometer (TTP LabTech).
Assay [4] relates to FTC-133 cells with FLCN expressed at low levels. The experiment in a line: SRB growth inhibition in FTC-133 cells, low FLCN expression. The settings on record: Homo sapiens, SRB assay. The class given is cell-based.
From the text: as §1, with “786-O is a kidney cancer cell line that harbours an inactivating VHL gene mutation (c.311delG p.G104fs*55). All cell lines were cultured in DMEM with supplement of 10% foetal bovine serum except for FTC-133 cells which were incubated in medium with DMEM and Hens (1:1).” left out
The sensitivity of the cell lines to drug-induced cell growth inhibition was determined using the sulphorhodamine B assay (SRB) as described by Lu et al., Clin Cancer Res. 2001:7:2114-23. […] The absorbance per well was measured at 570 nm on a Victor X3 Multilabel Plate Reader (PerkinElmor, Beaconsfield, United Kingdom). […]
(In general: The SRB assay estimates cell density from bound dye.)

The subject of assay [5] is 786-O cells with mutant VHL. As to the kind of experiment: SRB growth inhibition in 786-O cells with mutant VHL. The class given is cell-based, human.
From the text: as §1
The sensitivity of the cell lines to drug-induced cell growth inhibition was determined using the sulphorhodamine B assay (SRB) as described by Lu et al., Clin Cancer Res. 2001:7:2114-23. Briefly, adherent exponentially growing cells were seeded into 96-well plates at 3-5×10^3 cells/100 μl/well. After 20-24 h at 37° C., drugs were added at the appropriate drug concentrations to the wells (final DMSO conc. 1%) as indicated in the Results section. […] The absorbance per well was measured at 570 nm on a Victor X3 Multilabel Plate Reader (PerkinElmor, Beaconsfield, United Kingdom).
Cells were exposed continuously to various concentrations of drugs for 72 hours. GI50 values were determined as the concentrations at 50% growth inhibition from at least three experiments.

For assay [6], the system named is FTC-133 cells transfected with empty vector. As to the kind of experiment: SRB growth inhibition in FTC-133 cells, empty vector. The class given is cell-based, human. To be noted: for GI50: Homo sapiens; for differential sensitivity in FTC-133 cells with different levels of FLCN expression (in words): SRB assay.
From the text: as §1, §2
(§3) A FLCN containing construct was introduced into parental FTC-133 cells and stably transfected cells were selected. SRB growth inhibition assay was carried out in cells transfected with empty vector and low FLCN and high FLCN expression.
as §3

Experimental for UOK-FLCN^+ cells: as §4

As for `CO[C@H](C(=O)[C@@H](O)[C@@H](C)O)C1Cc2cc3cc(OC4CC(OC5CC(O)C(O)C(C)O5)C(O)C(C)O4)c(C)c(O)c3c(O)c2C(=O)[C@H]1OC1CC(OC2CC(OC3CC(C)(O)C(O)C(C)O3)C(O)C(C)O2)C(O)C(C)O1` (stereo partly drawn) [mithramycin, Mithramycin], the 50% growth inhibitory concentration (GI50) with UOK257-FLCN^− cells [1] (72 h, read-out: GI50 nM in UOK-FLCN^−) was 64.2 ± 7.9 nM; in the assay with UOK257-FLCN^− cells [1] (72 h, read-out: GI50 in UOK257-FLCN^− cells, rapamycin combination experiment) it was 69 ± 10 nM; in the assay on UOK257-FLCN^− cells [1] (read-out: GI50 in FLCN-null UOK257 cells), 64.2 ± 7.9 nM; in assay [4] it was 38.7 ± 10.4 nM; in assay [4] (72 hours), 38.7 ± 10.4 nM; in assay [5] (Homo sapiens, 786-0, 72 h, read-out: GI50 in 786-O cells with mutant VHL) it was 117 ± 37 nM. For the same molecule, the concentration for 50% growth inhibition (GI50) was found to be 59.3 ± 8.9 nM in assay [6] (FTC-133, 72 h, read-out: GI50 in FTC-133 cells, empty vector) and 59.3 ± 8.9 nM in assay [6] (FTC-133, read-out: GI50 in FTC-133 cells, empty vector). Besides, in the assay with UOK257-FLCN^− cells [1] (ratio>1 = more inhibitory to FLCN^− cells), the “GI50 Ratio of UOK-FLCN^+/UOK-FLCN^−” value is 9.88. For the same molecule, in assay [2], the “active forms of cleaved caspase3 (Western blot)” value was “found at 100 and 200 nM, but not in low concentrations of mithramycin (25 and 50 nM)”. Moreover, in the assay with UOK-FLCN^+ cells, the “increase in S and G2-M phases” value was determined as 15%. Moreover, in the assay with UOK257-FLCN^+ cells (200 nM), the “cell survival (clonogenic), UOK257-FLCN^+ cells” value is “more than 85%”. Besides, the “cells able to form colonies, UOK257-FLCN^+ cells” value in the assay on UOK257-FLCN^+ cells (500 nM) is “more than 60%”. The “cells survived (clonogenic), UOK257-FLCN^+ cells” value with UOK257-FLCN^+ cells (5000 nM) is “more than 4%”. For the same molecule, the “lengthening of the S and G2-M time” value in the assay with UOK257-FLCN^− cells [3] amounted to 100%. Further, the “fold greater growth inhibitory sensitivity in 786-O mutant VHL versus wt VHL” value in assay [5] was around 3 fold. Besides, the “differential sensitivity in FTC-133 cells with different levels of FLCN expression (in words)” value in assay [6] was “no apparent differential mithramycin sensitivity”; in assay [6] (listed as Mithramycin), “does not show genotypic selective growth inhibitory activity”.
